Results published in patent US12064516B2, “Pharmaceutical formulations and uses thereof” (Aldeyra Therapeutics, Inc., priority 2020, dated 2024).
Where two headings read alike, the source gives them in different places.

Test: Pharmacokinetics of compound I-1 in the dog by intravenous, oral gavage and oral capsule routes
Format: in vivo, beagle dogs
Details: for concentration at 0.083 h / concentration at 0.25 h / concentration at 0.5 h / concentration at 1 h / concentration at 2 h / concentration at 4 h / concentration at 8 h / concentration at 12 h / AUC(0-inf) / AUC(0-t) / C0 / clearance / half-life / Vd: male, beagle, dog, plasma; for concentration at 0.083 h / concentration at 0.25 h / concentration at 0.5 h / concentration at 1 h / concentration at 2 h / concentration at 4 h / concentration at 8 h / concentration at 12 h: read-out: Concentration at time point; for Vd: read-out: Vss
Description: A pharmacokinetic study was conducted to compare the bioavailability of capsule and suspension oral formulations vs. an intravenous formulations.
The standard curve was prepared from 1 to 2,000 ng/mL. QC samples were prepared at […]. Dilution QCs were prepared at 10-fold dilution. Deuterated (d6) I-1 (compound 1-7) was used as an internal standard. A 50 μL aliquot of sample was added to 150 μL of cold internal standard in acetonitrile to effect protein precipitation. The resulting supernatants were analyzed by LCMS. Diluted sample data was utilized only for over-the-curve results.
Briefly, 9 male non-naïve beagle dogs were assigned in groups of 3 to 3 dose groups. Group 1 was dosed 3 mg/kg by the intravenous route in a vehicle of 20% sulfobutylether-β-cyclodextrin (SBECD). Group 2 was dosed 10 mg/kg by the oral gavage route in a vehicle of 0.5% methylcellulose (MC). Group 3 was dosed with 100 mg capsules.
The I-1 100 mg capsules are manufactured as a non-sterile spray dried, granulated powder blend. The blend is then filled into capsules for oral delivery. The capsules are packaged in high-density polyethylene bottles. The quantitative composition of the I-1 100 mg capsule is presented above in Table B.
Procedure: (PO) gavage: formulations will be administered via a rubber oral gavage tube followed by a 10 mL flush with drinking water. (PO) tablet: tablets will be administered orally by placing the tablet in the back of the throat followed by a 10 mL flush with water.
Frequency: Pre-dose, 5, 15, 30 min, 1, 2, 4, 8, and 12 hrs post-dose (IV); pre-dose, 15, 30 min, 1, 2, 4, 8, and 12 hrs post-dose (PO by gavage and PO by capsule).
Blood collection: each blood sample will be collected from the dog's jugular vein or other accessible vein via direct venepuncture, placed into a pre-labeled tube containing K2EDTA and kept on ice until centrifugation.
Plasma preparation and storage: Certifuged at 4 C at 3,000× for 5 mm. Stored in a freezer until analysed.
Pharmacokinetics package PKSolver2.0™ has been validated against WinNonLin™ as a tool for non-GLP studies and was used to process the pharmacokinetic data.
For each route, the average data were processed with non-compartmental, one compartment, and two compartment models. The models were assessed for goodness of fit and the accuracy of the model to assess the biphasic data, with either a) no weighting, b) 1/concentration observed, or c) 1/concentration observed squared. 1/concentration predicted, and 1/concentration predicted squared weightings were also assessed for best fit. […] The zeros were averaged with the 71.5 value for a resulting average of 23.8. For the In Group 2 (PO Gavage) subject 3 experienced 30 mL of emesis, so the dose assigned to that subject was 7.46. In all cases, the subjects were modelled individually, and the individual PK parameters were averaged to provide final parameters.
For group 1 (intravenous) the final model selected was a two compartment model with 1/concentration observed squared weighting.
For group 2 (oral gavage) the final model was a two compartment extravascular model with 1/concentration predicted squared weighting.
For group 3 (oral capsule) the final model was a one compartment extravascular model with a lag time and no weighting. […] The body weight of each animal was used to assign a mg/kg dose to each individual. Subject 1 was dosed at 7.69 mg/kg. Subject 2 was 6.94 mg/kg, and Subject 3 was 6.99 mg/kg.

[1] = iv, 3 mg/kg, Group 1: IV 3 mg/kg, Average
[2] = iv, 3 mg/kg, Group 1: IV 3 mg/kg, Subject 1
[3] = iv, 3 mg/kg, Group 1: IV 3 mg/kg, Subject 2
[4] = iv, 3 mg/kg, Group 1: IV 3 mg/kg, Subject 3
[5] = iv, 3 mg/kg, Intravenous - 3 mg/kg, Average
[6] = iv, 3 mg/kg, Intravenous - 3 mg/kg, Subj1
[7] = iv, 3 mg/kg, Intravenous - 3 mg/kg, Subj2
[8] = iv, 3 mg/kg, Intravenous - 3 mg/kg, Subj3
[9] = oral, 7 mg/kg, Group 3: PO Capsule 7 mg/kg, Subject 1
[10] = oral, 7 mg/kg, Group 3: PO Capsule 7 mg/kg, Subject 3
[11] = oral, 7 mg/kg, Group 3: PO Capsule 7 mg/kg, Average
[12] = oral, 7 mg/kg, Group 3: PO Capsule 7 mg/kg, Subject 2

CC(C)(O)c1nc2ccccc2cc1N [I-1]
AUC/Dose (100 mg Capsule, average dose 7.2 mg/kg, Average): 1139 ng·h/mL/mg/kg | AUC/Dose (100 mg Capsule, average dose 7.2 mg/kg, Subj1): 955 ng·h/mL/mg/kg | AUC/Dose (100 mg Capsule, average dose 7.2 mg/kg, Subj2): 809 ng·h/mL/mg/kg | AUC/Dose (100 mg Capsule, average dose 7.2 mg/kg, Subj3): 1653 ng·h/mL/mg/kg | AUC/Dose (Intravenous - 3 mg/kg, Average): 1379 | AUC/Dose (Intravenous - 3 mg/kg, Subj1): 1361 | AUC/Dose (Intravenous - 3 mg/kg, Subj2): 1520 | AUC/Dose (Intravenous - 3 mg/kg, Subj3): 1256 | AUC/Dose (Oral Gavage 0.5% Methylcellulose 10 mg/kg, Average): 1038 ng·h/mL/mg/kg | AUC/Dose (Oral Gavage 0.5% Methylcellulose 10 mg/kg, Subj1): 1121 ng·h/mL/mg/kg | AUC/Dose (Oral Gavage 0.5% Methylcellulose 10 mg/kg, Subj2): 1010 ng·h/mL/mg/kg | AUC/Dose (Oral Gavage 0.5% Methylcellulose 10 mg/kg, Subj3 (dose assigned 7.46 after emesis)): 982 ng·h/mL/mg/kg | concentration at 0.083 h [1]: 5080 ng/mL | concentration at 0.083 h [2]: 4910 ng/mL | concentration at 0.083 h [3]: 4900 ng/mL | concentration at 0.083 h [4]: 5430 ng/mL | concentration at 0.25 h [1]: 2410 ng/mL | concentration at 0.25 h [2]: 2780 ng/mL | concentration at 0.25 h [3]: 2300 ng/mL | concentration at 0.25 h [4]: 2150 ng/mL | concentration at 0.5 h [1]: 1660 ng/mL | concentration at 0.5 h [2]: 1720 ng/mL | concentration at 0.5 h [3]: 1700 ng/mL | concentration at 0.5 h [4]: 1570 ng/mL | concentration at 1 h [1]: 951 ng/mL | concentration at 1 h [2]: 857 ng/mL | concentration at 1 h [3]: 908 ng/mL | concentration at 1 h [4]: 1090 ng/mL | concentration at 2 h [1]: 548 ng/mL | concentration at 2 h [2]: 436 ng/mL | concentration at 2 h [3]: 766 ng/mL | concentration at 2 h [4]: 443 ng/mL | concentration at 4 h [1]: 250 ng/mL | concentration at 4 h [2]: 259 ng/mL | concentration at 4 h [3]: 287 ng/mL | concentration at 4 h [4]: 203 ng/mL | concentration at 8 h [1]: 42.5 ng/mL | concentration at 8 h [2]: 49 ng/mL | concentration at 8 h [3]: 55.4 ng/mL | concentration at 8 h [4]: 23.1 ng/mL | concentration at 12 h [1]: 15.5 ng/mL | concentration at 12 h [2]: 23.9 ng/mL | concentration at 12 h [3]: 17 ng/mL | concentration at 12 h [4]: 5.5 ng/mL | AUC(0-inf) [5]: 4140 ng·h/mL | AUC(0-t) [5]: 4100 ng·h/mL | C0 [5]: 6720 ng/mL | clearance [5]: 12.2 mL/min/kg | half-life [5]: 1.82 h | Vd [5]: 1.39 L/kg | AUC(0-inf) [6]: 4080 ng·h/mL | AUC(0-t) [6]: 4030 ng·h/mL | C0 [6]: 5600 ng/mL | clearance [6]: 12.2 mL/min/kg | half-life [6]: 2.2 h | Vd [6]: 1.51 L/kg | AUC(0-inf) [7]: 4560 ng·h/mL | AUC(0-t) [7]: 4520 ng·h/mL | C0 [7]: 6670 ng/mL | clearance [7]: 11 mL/min/kg | half-life [7]: 1.82 h | Vd [7]: 1.4 L/kg | AUC(0-inf) [8]: 3770 ng·h/mL | AUC(0-t) [8]: 3760 ng·h/mL | C0 [8]: 7890 ng/mL | clearance [8]: 13.3 mL/min/kg | half-life [8]: 1.44 h | Vd [8]: 1.25 L/kg | concentration at 0.25 h [9]: 0 ng/mL | concentration at 0.25 h [10]: 0 ng/mL | concentration at 0.5 h [11]: 97.4 ng/mL | concentration at 0.5 h [9]: 1.1 ng/mL | concentration at 0.5 h [12]: 290 ng/mL | concentration at 0.5 h [10]: 1 ng/mL | concentration at 1 h [11]: 137 ng/mL | concentration at 1 h [9]: 24 ng/mL | concentration at 1 h [12]: 254 ng/mL | concentration at 1 h [10]: 134 ng/mL | concentration at 2 h [11]: 2350 ng/mL | concentration at 2 h [9]: 1740 ng/mL | concentration at 2 h [12]: 1320 ng/mL | concentration at 2 h [10]: 3990 ng/mL | concentration at 4 h [11]: 985 ng/mL
